The source of these data is patent US6599936B1, “Anti-sebum skin care cosmetic compositions containing branched esters” (Unilever Home & Personal Care USA division of Conopco, Inc., priority 1999, dated 2003).

Common to all, as to assay type: cell-based
In one assay the test system is human sebocytes. Kind of assay: Sebocyte assay: 14C-acetate label remaining in sebocytes (sebum suppression in vitro). As to conditions: for inhibition at 0.001 %: 0.001% test agent; for inhibition at 0.01 %: 0.01% test agent; for sebum suppression, result in words: conclusion drawn from Tables 1-5. As to the method:
Secondary cultures of human sebocytes obtained from an adult […] were grown in 48-well or 96-well tissue culture plates (Costar Corp.; Cambridge, Mass.) until three days post-confluence. Sebocyte growth medium consisted of Clonetics Keratinocyte Basal Medium (KBM) supplemented With 14 μg/ml bovine pituitary extract, 0.4 μ/ml hydrocortisone, 5 μ/ml insulin, 10ng/ml epidermal growth factor, 1.2×10^−10 M cholera toxin, 100 units/ml penicillin, and 100 μg/ml streptomycin. All cultures were incubated at 37° C. in the presence of 7.5% CO2. Medium was changed three times per week.
On the day of experimentation, the growth medium was removed and the sebocytes washed three times with sterile Dulbecco's Modified Eagle Medium (DMEM; phenol red free). Fresh DMEM was added to each sample (triplicates) with 1-5 microliter of test agent solubilized in ethanol. Controls consisted of addition of ethanol alone. Each plate was returned to the incubator for 20 hours followed by the addition of ^14C-acetate buffer (5 mM final concentration, 56 mCi/mmol specific activity). Sebocytes were returned to the incubator for four hours afterwhich each culture was rinsed three times with phosphate buffered saline to remove unbound label. Radioactive label remaining in the sebocytes was harvested and counted using a Beckman scintillation counter. Statistical significance (p value) was calculated using student's t-test. Phenol Red, a known sebum suppressive agent, was employed as a positive control.

The subject of assay [1] is Neonatal human dermal fibroblasts. Kind of assay: Glycosaminoglycan synthesis by fibroblasts, Alcian Blue dot blot. As to conditions: Table 7, glycosaminoglycans. The method, then:
Neonatal human dermal fibroblasts were seeded at a density of approximately 50,000/well in a 12-well plate in a medium containing DMEM (high glucose supplemented with 2 mM L-glutamine, 10% fetal bovine serum, antibiotic and antimycotic solutions). Cells were then grown to confluence for 2 days. At confluence, each well was rinsed in serum-free DMEM and the cells dosed with test compounds (in triplicate) in 750 μL of serum-free DMEM. After 24 hours, this medium was aspirated and the treatment step repeated. After a second 24-hour period, this medium, containing the soluble GAGs, was collected and frozen until analysis.
A positively-charged Zeta Probe membrane was soaked in sterile water and placed into the Dot-Blot Apparatus (both Bio-Rad Labs, Hercules, Calif.). 100 μL of water was applied to each well and pulled through using a vacuum. After thawing, 100 μL of test solution samples or standards (Hyaluronic acid or Chondroitin Sulfate from bovine trachea, Sigma, St. Louis, Mo.) was applied to the membrane and allowed to gravity filter (about 1.5-2 hours). GAGs were now bound to membrane. The membrane was blocked in 3% w/v fatty acid free bovine serum albumin (Sigma) in water for one hour. A dye solution of 0.5% w/v Alcian Blue dye (ICN Biochemicals, Cleveland, Ohio.) in 3% acetic acid, pH approximately 2.3, was made. The membrane was washed twice in distilled water and then stained in the dye solution on a rotary shaker for 15 minutes. The dye was poured off and the membrane destained twice for 15 minutes each time in 3% acetic acid. The membrane was rinsed in water and left to dry overnight. The blot was scanned on Bio-Rad GS-700 Image Analysis Densitometer and volume (OD*mm^2) of color/slot determined using molecular analyst software. Fold increase over control was calculated as a ratio of densitometer reading for cells treated with a test compound over control.

Assay [2] shares this test system. Kind of assay: Procollagen I production by fibroblasts, slot blot. As to the method:
Neonatal human dermal fibroblasts were purchased from Clonetics Corp., San Diego, Calif. All materials for cell culture were purchased from Life Technologies, NY and used in passages 5-10. Cells were seeded at a density of approximately 7,500/well in the inner 48 wells of a 96-well plate in a medium containing DMEM (Dulbecco's Modified Eagle's Medium), high-glucose supplemented with 2 mM L-glutamine, 10% fetal bovine serum, and antibiotic and antimycotic solutions). Cells were then grown to confluence for 2 days. At confluence, the medium was removed and cells were washed with serum-free DMEM, and each well dosed with 200 μl of a solution of a test compound in serum-free DMEM. Each dosing was replicated in the total of six wells. […] After 24 hours, the test compound solution or the control solution was removed and cells redosed with 100 μl of a solution of a test compound in serum-free DMEM. After 24 hours, the test compound solution or the control solution was removed and stored over the weekend at 4° C. with protease inhibitor (Aprotinin from Sigma) in a ratio of aprotinin to water of 1:200. The test compound solution was then diluted in DMEM (approximately 20 μl sample in 200 μl DMEM).
Nitrocellulose membrane and 3 sheets of filter paper were soaked in TRIS buffered saline (TBS, pH 7.3.). BioRad slot blot apparatus (BioRad Labs, CA) was set up with filter paper on bottom, membrane on top, tightened. […] TBS was added per well. Vacuum was used to suck wells through membrane. The diluted test compound solution or control was vortexed, then 100 μl was loaded per well and gravity dried. Procollagen from the test solution was bound to the membrane at this point in the procedure. Membrane was removed from the apparatus, excess cut off, and bottom right corner notched for orientation. The membrane was placed in blocking solution (5% milk powder in Dulbecco's phosphate buffered saline) overnight at 4° C., with shaking. The membrane was then incubated for 1.5 hrs at room temperature with 1.5 mL Rat Anti-Human Procollagen Amino-Terminal Ab (Chemicon MAB1912) in TBS with 0.1% BSA (ratio of antibody to buffer/BSA was 1:100) in a sealed bag with shaking. The membrane was then removed; washed 3 times for 5 minutes in TBS/0.1% Tween. The membrane was then incubated for 1 hour at room temperature in 2 mL of Biotinylated Anti-Rat Peroxidase-Conjugated Ab (Vector Labs) in TBS with 0.1% BSA (ratio of antibody to buffer/BSA was 1:1000) in a sealed bag with shaking.
The membrane was washed 3 times for 5 minutes in TBS/0.1%Tween. 3 mL PBS was incubated with 30 μl each of solutions A and B from Vectastain Kit for 30 minutes. The membrane was placed in the resulting solution for 30 minutes in a sealed bag with shaking. The membrane was then removed and washed twice for 5 minutes in TBS/0.1% Tween. The membrane was then stained using the following solution:
12.5 mg 3-amino 9-ethyl carbazole (Sigma)
3.125 (approximately) mL DMF (N,N-dimethylformamide, from Sigma)
The membrane was stained until color developed and the reaction stopped with 2 washes for 10 minutes in tap water. A transparency of the blot was prepared using a color copier. Blot was scanned on Bio-Rad GS-700 Image Analysis densitometer and volume (OD*mm^2) of color/slot determined using molecular analysis software. Fold increase was calculated as a ratio of densitometer reading for cells treated with a test compound over control.

Setting [3] is: Homo sapiens, 20 h, Table 3A, 20 hour incubation, 96 well plate, read-out: % Reduction.
The mark [4] stands for this setting: Table 6B, 0.0046% test compound.
[5] abbreviates: Homo sapiens, 0.5 h, Table 4, 30 minute incubation, 48 well plate, read-out: % Reduction.
The mark [6] stands for this setting: positive control, concentration not given.
The mark [7] stands for this setting: Table 6B, positive control, concentration not given.

Where two headings read alike, the source gives them in different places.

`CCCCCCCCCCCCCC(=O)OC(C)C` [Isopropyl Myristate, Isopropyl myristate]: in the assay on human sebocytes (setting [3]), the inhibition at 0.001 % was -6.3% and the inhibition at 0.01 % amounted to 4%. In the assay with human sebocytes, the “sebum suppression, result in words” value is “not an effective sebum suppressor”.
As for `CC(C)CCCCCCCCCCOC(=O)c1ccccc1` [Isotridecyl Benzoate], the “Average OD Reading” value in assay [1] (0.003% test compound) is 0.22; in assay [1] (0.03% test compound), 0.38; in assay [2] (Table 6B, 0.003% test compound) it was 2.534; in assay [2] (Table 6B, 0.030% test compound), 2.669. Besides, the “Fold increase over control” value came out at 0.8 fold in assay [1] (0.003% test compound); 1.5 fold in assay [1] (0.03% test compound); 1.3 fold in assay [2] (Table 6B, 0.003% test compound); 1.4 fold in assay [2] (Table 6B, 0.030% test compound). The inhibition at 3.9e-05 % with human sebocytes (Homo sapiens, 20 h, Table 5, 0.000039% test agent, 20 hour incubation, 48 well plate, read-out: % Reduction) is 36.3%. Moreover, the inhibition at 0.00039 % in the assay on human sebocytes (Homo sapiens, 20 h, Table 5, 0.00039% test agent, 20 hour incubation, 48 well plate, read-out: % Reduction) was 52.2%. Moreover, the inhibition at 0.0039 % with human sebocytes (Homo sapiens, 20 h, Table 5, 0.0039% test agent, 20 hour incubation, 48 well plate, read-out: % Reduction) was 41.8%.
As for `CCCC(=O)OCCCCCCCCCCC(C)C` [Isotridecyl Butyrate], the inhibition at 0.00027 % with human sebocytes (Homo sapiens, 20 h, Table 3C, 0.00027% test agent, 20 hour incubation, 48 well plate, read-out: % Reduction) turned out to be 4.1%. The inhibition at 0.0027 % in the assay on human sebocytes (Homo sapiens, 20 h, Table 3C, 0.0027% test agent, 20 hour incubation, 48 well plate, read-out: % Reduction) came to 17.2%. Also, the “sebum suppression, result in words” value with human sebocytes is recorded as “not effective sebum suppressive agents”.
`CCCCCCCCCC(=O)OCCCCCCCCCCC(C)C` [Isotridecyl Decanoate]: the “sebum suppression, result in words” value in the assay on human sebocytes is reported as “not effective sebum suppressive agents”.
As to `CCCCC/C=C\C/C=C\CCCCCCCC(=O)OCCCCCCCCCCC(C)C` [Isotridecyl Linoleate], the “Average OD Reading” value in assay [1] (0.0046% test compound) was found to be 0.40; in assay [1] (0.046% test compound), 0.29; in assay [2] (setting [4]), 2.346; in assay [2] (Table 6B, 0.046% test compound), 2.4585. For the same compound, the “Fold increase over control” value in assay [1] (0.0046% test compound) is listed as 1.5 fold; in assay [1] (0.046% test compound) it was 1.1 fold; in assay [2] (setting [4]), 1.2 fold; in assay [2] (Table 6B, 0.046% test compound), 1.3 fold. Besides, the inhibition at 4.6e-05 % with human sebocytes (Homo sapiens, 20 h, Table 5, 0.000046% test agent, 20 hour incubation, 48 well plate, read-out: % Reduction) amounted to 57.3%. In the assay with human sebocytes (Homo sapiens, 20 h, Table 5, 0.00046% test agent, 20 hour incubation, 48 well plate, read-out: % Reduction), the inhibition at 0.00046 % was determined as 50.9%. In the assay with human sebocytes (Homo sapiens, 20 h, Table 5, 0.0046% test agent, 20 hour incubation, 48 well plate, read-out: % Reduction), the inhibition at 0.0046 % was 44.9%.
`CCCCCCCCC(=O)OCCCCCCCCCCC(C)C` [Isotridecyl Nonanoate]: the inhibition at 0.001 % in the assay on human sebocytes (Homo sapiens, 20 h, Table 3B, 20 hour incubation, 48 well plate, read-out: % Reduction) came to 0.7%. Moreover, the inhibition at 0.1 % in the assay on human sebocytes (Homo sapiens, 20 h, Table 3B, 0.1% test agent, 20 hour incubation, 48 well plate, read-out: % Reduction) turned out to be 0.8%. Besides, the “sebum suppression, result in words” value with human sebocytes is “not effective sebum suppressive agents”.
Consider `CC(C)CCCCCCCCCCOC(=O)c1ccccc1O` [Isotridecyl salicylate], for which the inhibition at 0.005 % with human sebocytes (Homo sapiens, 0.5 h, Table 4, 0.005% test agent, 30 minute incubation, 48 well plate, read-out: % Reduction) is 24.6%. In addition, in the assay on human sebocytes (setting [5]), the inhibition at 0.01 % was 48.9%. For the same compound, the “sebum suppression, result in words” value in the assay on human sebocytes was “effective in suppressing sebum”.
As for `O=S1(=O)OC(c2ccc(O)cc2)(c2ccc(O)cc2)c2ccccc21` [Phenol Red], the inhibition at 0.001 % with human sebocytes (Homo sapiens, 20 h, Table 1, 20 hour incubation, 48 well plate, read-out: % Reduction) was determined as 19.6%. Further, in the assay on human sebocytes (setting [3]), the inhibition at 0.001 % is 14% and the inhibition at 0.01 % was found to be 71.2%.
Take `CCCCCCCCCCCCCOC(=O)c1ccccc1O` [Straight Chain TDS, tridecyl salicylate]: the inhibition at 0.01 % in the assay with human sebocytes (setting [5]) was found to be 1.3%.
As to TGF-b, the “Average OD Reading” value is 0.86 in assay [1] (setting [6]); 6.787 in assay [2] (Table 6A, test compound 0.01%, densitometer volume (OD*mm^2)); 4.099 in assay [2] (setting [7]). The “Fold increase over control” value in assay [1] (setting [6]) turned out to be 3.3 fold; in assay [2] (Table 6A, test compound 0.01%, ratio of densitometer reading over control), 1.9 fold; in assay [2] (setting [7]), 2.1 fold.
